For this test, the target named is KHK (Homo sapiens (Human), UniProt P50053). Kind of test: In Vitro KHK Enzyme Assay (HTMS detection of fructose-1-P). It counts as biochemical. The following applies: 100 μM ATP, 2 nM KHK, 60 min at 25° C., 12-point dose-response.

SMILES strings stand for the structures. Structures can show the parent of a compound that is named as a salt.

KHK, sequence (P50053 whole entry): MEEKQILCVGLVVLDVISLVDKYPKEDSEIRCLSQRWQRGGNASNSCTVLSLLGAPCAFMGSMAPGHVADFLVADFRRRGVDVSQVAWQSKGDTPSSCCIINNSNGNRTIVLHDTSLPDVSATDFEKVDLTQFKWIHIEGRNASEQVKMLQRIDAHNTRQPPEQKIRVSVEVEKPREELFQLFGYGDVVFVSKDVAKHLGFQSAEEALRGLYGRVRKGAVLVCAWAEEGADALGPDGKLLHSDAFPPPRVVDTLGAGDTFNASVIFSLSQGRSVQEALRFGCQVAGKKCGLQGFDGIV
Description: An enzymatic assay was developed to measure KHK-mediated conversion of D-fructose to Fructose-1-P (F-1-P) using High Throughput Mass Spectroscopy (HTMS) as a means of product detection. This assay served as a primary screen to evaluate the ability to inhibit KHK enzyme activity and it has been adapted to high throughput mass spectrometry (HTMS, BioTrove RapidFire™) format for higher throughput.
The compounds to be tested were dosed in 12-points concentration from 511 μM to 0.5 μM. […] The assay was carried out in 384-well plate format.

Regarding `Cc1nn(-c2ccccc2)c2cc(N3CCC(N4CCNCC4)CC3)ccc12` [Compound 57, 3-Methyl-1-phenyl-6-(4-piperazin-1-yl-piperidin-1-yl)-1H-indazole hydrochloride], the IC50 – broadly, the point on the concentration scale where inhibition reaches its midpoint – was 3.2 µM. That is a single-digit micromolar value.

These data come from US9771375B2, “Indazole compounds useful as ketohexokinase inhibitors” (JANSSEN PHARMACEUTICA NV, priority 2010, dated 2017).
